Laboratory results as given in US6303612A, “Derivatives of hydroxyphenylsulfanylbenzoic and hydroxphenylsulfanylarylacetic acids” (Leciva, A.S., priority 1998, dated 2001).
In brackets after ≈: the same amount, converted by molar mass. Counter-ions that a name gives are not always drawn. Like-named read-outs stand apart in the source and are kept apart here.

Legend:
rats = assay: Inhibition of carrageenan-induced pleuritis in rats; type: in vivo; details: for inhibition in vivo at 100 mg/kg: Rattus norvegicus, po, 4 h
Protocol: Inhibition of Carrageenan-induced Pleuritis in Rats
(Hidaka T. J.: Pharm. Pharmacol. 38, 242 (1986) 1 ml of 0.5% carrageenan solution in saline was administered intrapleurally to experimental animals under mild ether anesthesia. Test drugs were administered in single oral dose 1 h before carrageenan injection, 4 h following the carrageenan application the rats were killed and exudate was withdrawn from opened pleural cavity. The volume of exudate, its cellularity and total cell number were determined.

[1] = tested on: peroxidation of lipids from the hepatic cells membranes; assay: Antioxidant effect in vitro; type: biochemical; details: at 100 μg
Description: Antioxidant Effect in vitro
The end-product, malonic dialdehyde, was transformed to coloured complex with thiobarbituric acid and determined spectrophotometrically. The antioxidant effect was expressed in % of peroxidation inhibition in the presence of the compound tested in comparison to a control sample.

male mice = assay: Inhibition of arachidonic acid-induced ear inflammation in mice; type: in vivo; details: Mus musculus, po, 1 h
Protocol: Inhibition of Arachidonic Acid-induced Ear Inflammation in Mice (Opas E. E. et al.: J. Invest. Dermatol. 84, 253 (1985) Ear inflammation was induced in male mice by 20 μl of arachidonic acid dissolved in acetone (concentration 100 mg/ml). The mice were sacrificed 1 h after application of arachidonic acid and the ears were cut off by standard means. The other, vehicle-treated ear of the same animal served as a control. The degree of ear hyperemia and the weight of ear lobes were evaluated. Test compounds were administered orally 1 h before the induction of inflammation.

LTB4 receptor = LTB4 receptor (Cavia porcellus, UniProt H0VYV8); assay: LTB4 receptor binding study; details: 3H-LTB4, guinea-pig spleen membranes; for IC50: read-out: Inh. of LTB4 rec. binding, IC50; for inhibition at 20 µM: read-out: Inh. of LTB4 rec. binding, %
LTB4 receptor, sequence (H0VYV8 1-348): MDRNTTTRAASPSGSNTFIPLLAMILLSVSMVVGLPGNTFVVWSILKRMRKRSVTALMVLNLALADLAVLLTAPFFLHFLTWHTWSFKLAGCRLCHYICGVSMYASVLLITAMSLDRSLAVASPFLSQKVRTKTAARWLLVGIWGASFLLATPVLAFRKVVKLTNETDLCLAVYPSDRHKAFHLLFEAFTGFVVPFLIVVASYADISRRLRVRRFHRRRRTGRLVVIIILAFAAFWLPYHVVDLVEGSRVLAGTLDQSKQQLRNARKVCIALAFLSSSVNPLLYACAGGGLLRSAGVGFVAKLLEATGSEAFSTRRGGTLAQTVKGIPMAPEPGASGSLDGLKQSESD
Protocol: LTB4 Receptor Binding Study
A slightly modified method of Cheng and coworkers (Cheng J. B. et al.: J. Pharm. Expl. Ther. 236, 126 (1986)) was used. The membrane fraction was prepared from male guinea-pig spleen; 2 mg of membranes were incubated with 0.3 nM ^3 H-LTB4 at 25° C. for 30 min in 100 μl of the incubated mixture. The nonspecific binding was determined in the presence of 0.1 μM LTB4. The membranes were filtered though Whatman GF/C paper and washed triply with buffer. The radioactivity was measured by liquid scintillation spectrometry, and the specific binding of ^3 H-LTB4 to the receptor was determined.

LTD4 receptor = target: T1, LTD4 receptor (Cavia porcellus, UniProt Q2NNR5); assay: LTD4 receptor binding study; details: 3H-LTD4, guinea-pig lung membranes; for IC50: read-out: Inh. of LTD4 rec. binding, IC50; for inhibition at 100 µM / inhibition at 20 µM: read-out: Inh. of LTD4 rec. binding, %
T1 construct: The membrane fraction was prepared from male guinea-pig lungs; from tissue; host or cells: male guinea-pig lung membranes
T1 sequence (Q2NNR5 1-340): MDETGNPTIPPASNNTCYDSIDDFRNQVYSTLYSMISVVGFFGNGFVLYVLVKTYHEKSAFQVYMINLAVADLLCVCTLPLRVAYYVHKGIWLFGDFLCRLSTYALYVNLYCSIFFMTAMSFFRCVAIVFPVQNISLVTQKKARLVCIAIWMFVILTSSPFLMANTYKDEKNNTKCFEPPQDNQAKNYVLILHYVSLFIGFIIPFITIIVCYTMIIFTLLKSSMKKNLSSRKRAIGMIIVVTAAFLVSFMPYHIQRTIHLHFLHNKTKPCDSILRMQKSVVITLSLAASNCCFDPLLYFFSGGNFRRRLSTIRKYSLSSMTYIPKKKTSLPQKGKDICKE
Protocol: LTD4 Receptor Binding Study
This study was performed according to the method of Burns and coworkers (Burns R. F. et al.: Life Sci. 33, 645 (1983)). The membrane fraction was prepared from male guinea-pig lungs, and 4 mg of this fraction were incubated with 0.4 nM ^3 H-LTD4 for 60 min at 25° C. in 100 μl of the incubated mixture. The nonspecific binding was determined in the presence of 0.1 μM LTD4. The filtration of the membranes, washing, and radioactivity measurement were as above.

Wistar-Han rats = assay: Inhibition of carrageenan edema; type: in vivo; details: dose 100 mg/kg; for inhibition in vivo at 100 mg/kg: Rattus norvegicus, read-out: CE: inhibition of carrageenan-induced edema, % of inh.
[2] = tested on: LTB4 production in rat polymorphonuclear cells; assay: Ex vivo inhibition of LTB4 production (LTB4 biosynthesis); type: cell-based; details: for Inh. of LTB4 biosynth., %: at 30 μg (%/μg); for IC50: Rattus norvegicus, read-out: Inh. of LTB4 biosynth., IC50
Protocol: Ex vivo Inhibition of LTB4 Production The production of LTB4 was determined in rat polymorphonuclear cells from pleural exudate elicited by heat-activated rat serum (Palmer R. M. J., Salmon J. A.: Immunology 50, 65 (1983)). The cells were stimulated with the Ca ionophore A 23187 (Sigma) and incubated with various concentrations of the drugs tested. The sample containing only buffer was used for the determination of unaffected biosynthesis; the complete inhibition was measured in a sample with 100 μg of NDGA in 1 ml. LTB4 was determined in supernatant using a commercial RIA kit (Amersham).

[3] = dose 100 mg/kg, oral, values with mark n: p > 0.05, read-out: Experimental pleuritis, A: volume of exudate in pleural cavity, % of inh.
[4] = dose 100 mg/kg, oral, values with mark n: p > 0.05, read-out: Experimental pleuritis, B: number of cells, % of inh.
[5] = dose 100 mg/kg, oral, values with mark n: p > 0.05, read-out: Experimental pleuritis, C: cellularity in a volume unit, % of inh.
[6] = values with mark n: p > 0.05, read-out: Ear edema, D: edema of ear lobe, % of inh.
[7] = values with mark n: p > 0.05, read-out: Ear edema, E: hyperemia of ear lobe, % of inh.
[8] = dose 100 mg/kg, oral, values with mark n: p > 0.05, 100 mg/kg

Structure (SMILES) | inhibition in vivo at 100 mg/kg (rats; [3]) [%] | inhibition in vivo at 100 mg/kg (rats; [4]) [%] | inhibition in vivo at 100 mg/kg (rats; [5]) [%] | Antiox. effect, % of peroxidation inhibition [1] [%] | inhibition in vivo at 200 mg/kg (male mice; [6]) [%] | inhibition in vivo at 200 mg/kg (male mice; [7]) [%] | IC50 (LTB4 receptor) [µM] | inhibition at 20 µM (LTB4 receptor; at 20 μM) [%] | IC50 (LTD4 receptor) [µM] | inhibition at 100 µM (LTD4 receptor) [%] | inhibition in vivo at 100 mg/kg (Wistar-Han rats) [%] | Inh. of LTB4 biosynth., % [2] [%] | IC50 [2] [µg/mL] | also measured
CCCc1c(OCCCCOc2ccc(Sc3ccccc3CC(=O)O)cc2)ccc(C(C)=O)c1O [Compound 26, 2-(4-(4-(4-Acetyl-3-hydroxy-2-propylphenoxy)butoxy)phenylsulfanyl)phenylacetic Acid] | 20 | 8 | 23 | 0 | 17 | 0 | 18 | 29 | 34.7 | 63 | 34 | 97 | – | –
O=C(O)Cc1ccccc1Sc1cccc(OCCCN2CCN(Cc3ccc(Cl)cc3)CC2)c1 [Compound 28, Dihydrogenmaleate of 2-(3-(3-(1-(4-Chlorobenzyl)piperazin-4-yl)-propoxy)phenylsulfanyl)phenylacetic Acid] | 10 | 21 | 14 | 3 | 16 | 19 | 7.9 | 69 | – | – | 18 | 100 | 0.6 (≈ 1.17 µM) | inhibition at 20 µM (LTD4 receptor): 10%
O=C(O)Cc1ccccc1Sc1ccc(OCc2ccc3cc(Cl)ccc3n2)cc1 [Compound 32, 2-(4-(6-Chloroquinoline-2-ylmethoxy)phenylsulfanyl)phenylacetic Acid] | – | – | – | 14 | – | – | 30 | 38 | 1 | 81 | – | 62 | – | –
O=C(O)c1ccccc1Sc1ccc(OCc2ccc3cc(Cl)ccc3n2)cc1 [Compound 21] | 15 | 12 | 4 | 0 | 7 | 3 | 30.1 | 39 | 1.7 | 86 | 18 | 100 | 0.08 (≈ 0.19 µM) | –
COc1cc(C(=O)NS(=O)(=O)c2ccccc2C)ccc1Cc1cn(C)c2ccc(NC(=O)OC3CCCC3)cc12 [Accolate, reference compound] | – | – | – | – | – | – | – | 0 | 0.03 | 94 | – | 98 | 1.12 (≈ 1.95 µM) | –
O=C(O)c1ccccc1Sc1ccc(OCCCCN2CCN(Cc3ccc(Cl)cc3)CC2)cc1 [Compound 14] | – | – | – | – | – | – | – | 16 | 33 | 86 | – | 100 | 9.5 (≈ 18.6 µM) | –
COC(=O)c1ccccc1Sc1cccc(OCCCN2CCN(CCO)CC2)c1 [Compound 15, Bis-hydrogenmaleate of Methyl 2-(3-(3-(1-(2-hydroxyethyl)piperazin-4-yl)-propoxy)phenyl-sulfanyl)benzoate] | 2 | 15 | – | 0 | 7 | 3 | – | – | – | 22 | 9 | 88 | 12.6 (≈ 29.3 µM) | –
O=C(O)c1ccccc1Sc1ccc(OCCN2CCN(Cc3ccc(Cl)cc3)CC2)cc1 [Compound 11, Hydrogenmaleate of 2-(4-(2-(1-(4-Chlorobenzyl)piperazin-4-yl)ethoxy)-phenylsulfanyl)benzoic Acid] | – | – | – | 10 | 22 | 0 | – | 25 | 120 | 36 | 33 | 97 | 0.02 (≈ 0.0414 µM) | –
O=C(O)Cc1ccc(Sc2ccc(OCc3ccc4ccccc4n3)cc2)cc1 [Compound 30, 4-(4-(Quinoline-2-ylmethoxy)phenylsulfanyl)phenylacetic Acid] | 27 | 30 | 2 | 14 | – | – | 20.5 | 43 | 2.3 | – | 41 | 94 | 0.004 (≈ 0.00996 µM) | inhibition at 20 µM (LTD4 receptor): 80%
NC(=O)N1C(=O)C(=C(O)c2cccs2)c2cc(Cl)ccc21 [Tenidap Na^+, reference compound] | – | 73 | – | – | 14 | 76 | – | 8 | 418 | 10 | 61 | 100 | 1.04 (≈ 3.24 µM) | inhibition in vivo at 100 mg/kg (rats; read-out: Experimental pleuritis, A: volume of exudate in pleural cavity, % of inh.): 72%; inhibition in vivo at 100 mg/kg (rats; read-out: Experimental pleuritis, C: cellularity in a volume unit, % of inh.): 6%
O=C(O)c1ccc(Sc2ccc(OCc3ccc4ccccc4n3)cc2)cc1 [Compound 24, Tromethammonium salt of 4-(4-(Quinoline-2-ylmethoxy)phenylsulfanyl)benzoic Acid] | – | – | – | 13 | – | – | 14.7 | – | 0.31 | – | – | 99 | – | Experimental pleuritis, A: volume of exudate in pleural cavity, % of inh. (rats; [8]): 23%; Experimental pleuritis, B: number of cells, % of inh. (rats; [8]): 32%; Experimental pleuritis, C: cellularity in a volume unit, % of inh. (rats; [8]): 6%; Inh. of LTB4 rec. binding, % (LTB4 receptor; at 20 μM): 42%; inhibition at 20 µM (LTD4 receptor): 95%; CE: inhibition of carrageenan-induced edema, % of inh. (Wistar-Han rats): 27%; Inh. of LTB4 biosynth., IC50 [2]: 0.18 µg/mL
